Source: PubChem BioAssay AID2305 (GlaxoSmithKline (GSK), 2010)
pIC50: −log10 of the molar value.

tested on: P. falciparum 3D7 growth, pLDH absorbance; test: P. falciparum 3D7 growth inhibition, dose response, strain 3D7 (AID 2305)

SMILES	pIC50
CCOC(=O)c1ccc(NC(=O)N[C@@H](Cc2ccccc2)C(=O)NC2CCN(Cc3ccc(O)c(OC)c3)C2)cc1 (stereo partly drawn)	6.00
CCOC(=O)c1c(C)n(-c2ccccc2)c2ccc(OC(=O)c3ccc(S(=O)(=O)N(CC)CC)cc3)cc12	6.12
Cc1[nH]c(C)c(-c2ccc(/C=C/c3ccccn3)cc2)c(=O)c1Cl	6.28
O=C(Nc1cccc(CN2CCN(C(=O)c3cccc(Cl)c3)CC2)c1)c1ccco1	6.36
Oc1ccc(CCNCCCCCCNCCc2ccc(-c3ccccc3)cc2)cc1O	6.22
Cn1c2ccccc2c2c3ccccc3c(CNC(CO)(CO)CO)cc21	6.28
CS(=O)(=O)Nc1ccc2[nH]cc(C3CCN(CC4CCC(NC(=O)/C=C/c5ccc(Cl)c(Cl)c5)CC4)CC3)c2n1 (stereo not drawn)	6.11
Oc1ccc2c(CNC3CCCCC3)c(O)ccc2c1CNC1CCCCC1	7.40
CCCCn1c(C(C)Oc2ccc(Cl)cc2Cl)nc2cc(S(N)(=O)=O)ccc21 (stereo not drawn)	6.15
Cc1c(C)c2c(c(C)c1O)CCC(C)(CCC(=O)O)O2 (stereo not drawn)	6.16
O=C(Nc1cccc(C(F)(F)F)c1)c1ccc(S(=O)(=O)NCC2CCN(CC3CCCCC3)CC2)cc1	6.49
CC(=O)Nc1nc(C(=O)Nc2cccc(-c3ccc(-c4nc5ccccc5[nH]4)cc3)c2)cs1	6.38
O=C(Nc1cccc(C(F)(F)F)c1)c1cccc(S(=O)(=O)NCC2CCCN(Cc3ccccc3)C2)c1 (stereo not drawn)	5.96
Cc1[nH]c(C)c(-c2ccc(Oc3cccc(C(F)(F)F)c3)cc2)c(=O)c1Br	8.00
Cc1nc(NCc2ccccc2)cc(Nc2cc(NCc3ccccc3)nc(C)n2)n1	6.01
Cc1occc1C(=O)Nc1nc(-c2ccccn2)nc2ccsc12	6.05
CC(=O)N(Cc1nc(-c2cc(Cl)c(Cl)s2)cs1)c1c(C)cccc1C	6.48
CC(=O)Nc1ccc(C(=O)Nc2cccc(-c3csc(-c4nc5ccccc5[nH]4)c3)c2)cn1	6.92
Nc1ccc(-c2ccc(NC(=O)Nc3cc(C(F)(F)F)ccc3F)cc2)cn1	6.18
Cc1cc(C)cc(OCC(O)CN(CCN2CCOCC2)C(=O)Nc2ccc(Br)cc2)c1 (stereo not drawn)	5.99
COc1ccc2ncc(C#N)c(CCN3CCC(NCc4ccc5c(n4)NC(=O)CS5)CC3)c2n1	6.08
O=C(Nc1ccc2c(c1)CCN2C1CCN(Cc2ccc(C(F)(F)F)cc2F)C1)c1ccco1 (stereo not drawn)	6.29
Cc1cc(NCc2ccccc2)nc2cc(O)ccc12	6.11
COc1ccc(CNC2Cc3ccccc3C2)cc1-c1ccc(S(=O)(=O)NCc2ccccc2)s1	6.08
Cc1cc(NN=Cc2cccc(F)c2)c2cccc(C)c2n1	6.11

SMILES	pIC50
Cc1nc(N)nc(N)c1CCCOc1ccccc1Br	6.38
COc1ccc(Nc2nccc(-c3ccc4c(-c5ccsc5)cnc(N)c4c3)n2)cc1	6.62
Cc1ccc2nc(C)n(C3CCN(C(=O)C4(c5ccccc5)CC4)CC3)c2c1	6.09
Cc1cc(CN2CCC(C(=O)Nc3ccc(-c4nc5ccccc5[nH]4)cc3)CC2)oc1C	5.84
COc1ccc2c(=O)c(C3CCC(c4ccc(Cl)cc4)CC3)c(C)[nH]c2c1 (stereo not drawn)	6.19
Cc1cccc2[nH]c(-c3ccc(-c4cccc(C(=O)NCCc5cn(C)cn5)c4)s3)nc12	6.06
CCOC(=O)c1ccc(NC(=O)Nc2ccc(-c3ccc(-c4nc5ccc(C(F)(F)F)cc5[nH]4)cc3)cc2)cc1	6.57
COc1ccc2nccc([C@@H](O)CN3CCC(NCc4cnc5c(c4)NC(=O)CS5)CC3)c2c1	6.07
CC(C)(C)c1ccc(-c2nc3c(ccc4nc(N)nc(N)c43)[nH]2)cc1	6.80
COc1ccc2nccc([C@@H](O)CN3CCC(NC(=O)c4ccc5cc[nH]c5c4)CC3)c2c1	6.01
Cc1[nH]c2ccc(C#N)cc2c(=O)c1Br	6.19
O=C1OC(c2ccccc2)(c2ccccc2)CN1C1CCN(Cc2ccc(O)c(Cl)c2)C1 (stereo not drawn)	6.02
COc1ccccc1C1CC(c2ccc(C)cc2)=NN1C(=O)c1ccccc1 (stereo not drawn)	6.05
CN1CCCc2ccc(NC(=O)c3cc(-c4ccc(Cl)cc4)cs3)cc2C1	6.10
COc1ccc2nccc([C@@H](O)CN3CCC(NCCNc4cccc(F)c4)CC3)c2c1	6.74
CC1CCCCN1CCCNc1ncc2c(-c3ccc(NC(=O)Nc4cc(C(F)(F)F)ccc4F)c(F)c3)nn(C)c2n1 (stereo not drawn)	6.59
CC(C)n1nc(C(=O)N2CCN(c3ccccc3)CC2)c2ccccc2c1=O	6.01
N=c1c2c(n(Cc3cccc(Cl)c3)c3c1CCC3)CCCC2	6.72
Cc1cnc2ccc(NS(=O)(=O)c3sc4ccc(Cl)cc4c3C)cc2c1N1CCNCC1	6.09
CN(CCO)Cc1ccc(-c2ccc(NS(=O)(=O)c3cccc4cccnc34)cc2)cc1	6.10
OCCNc1nc(Nc2ccc(F)cc2)nc2ccccc12	6.80
COc1cccc(CNC[C@@H](O)[C@H](Cc2ccccc2)NC(=O)c2cc3c4c(c2)c(C(C)C)cn4CCS(=O)(=O)N3C)c1	6.82
Cc1ccc(Cn2c(N3CCC(C(=O)NCc4ccccn4)CC3)nc3ccccc32)cc1	6.39
Cc1cccc2[nH]c(-c3cccc(-c4ccc(NC(=O)C(C)C(=O)NC(C)C)cc4)c3)nc12 (stereo not drawn)	6.00
COc1ccc2nccc([C@@H](O)CN3CCC(NCc4ccc5c(c4)NC(=O)CS5)CC3)c2n1	6.12

SMILES	pIC50
CCCC[C@H](NC(=O)OC(C)(C)C)C(=O)Nc1ccc(Cc2ccc(NC(=O)[C@H](CCCC)NC(=O)OC(C)(C)C)cc2)cc1	6.14
O=C(Nc1ccc(-c2nc3ccccc3[nH]2)cc1)C1CCN(Cc2ccccc2)CC1	5.75
CS(=O)(=O)c1ccc(CNCc2ccc(-c3cccc(-c4nc5ccccc5[nH]4)c3)cc2)cc1	6.48
Cc1nc(-c2ccc(-c3ccc(C(=O)Nc4ccc(C(C)C)c(OCCN(C)C)c4)cc3)c(C)c2)no1	6.06
c1ccc(CN2CCC(NCc3ccccc3-c3ccc(CNC4CCCC4)cc3)CC2)cc1	6.04
CC(C)(CNCc1cccc(Oc2ccccc2)c1)c1nc(-c2ccc(Cl)c(O)c2)c(-c2ccnc(N)n2)[nH]1	6.12
CCCC(C)Nc1nc(C)cc(N[C@@H](Cc2ccccc2)C(=O)NCCc2ccccc2)n1 (stereo partly drawn)	6.02
CO/C(=C\C=C\c1cc2cc(Cl)ccc2[nH]1)C(=O)NCCCN1CCN(c2cc(Cl)ccc2OC)CC1	6.06
O=C(Nc1ccccc1-c1ccccc1)C1CCCN1C(=O)Nc1ccc(Cl)cc1 (stereo not drawn)	6.10
Cc1cc(C(F)(F)F)cc(-n2ncc(-c3ccc(C(=O)NCCNCc4ccccc4)cc3)c2N)n1	5.97
COc1cc(NC(=O)CCCN2CCN(c3cccc(Cl)c3Cl)CC2)ccc1N1CCN(C(C)C)CC1	6.02
C/C=C1\CN2CC[C@H]1C[C@@H]2[C@@H](O)c1ccnc2ccc(O)cc12	6.60
O=S(=O)(NCCN1CCCC1)c1ccc(-c2ccc(CNCc3ccc(F)cc3)cc2)s1	6.08
CCOC(=O)CNC(=O)N(CCN(Cc1ccccc1)C(=O)NCC(=O)OCC)Cc1ccccc1	6.11
NC(=O)c1ccc(NC(=O)CN(Cc2ccc(Cl)cc2)S(=O)(=O)c2ccccc2)cc1	6.19
Cc1c(S(=O)(=O)Nc2ccc3nccc(N4CCN[C@H](C)C4)c3c2)sc2ccc(Cl)cc12	6.08
CCNc1cc(C(=O)N[C@@H](Cc2ccccc2)[C@H](O)CNC23CCC(CC2)CC3)cc(N2CCCCS2(=O)=O)c1	7.22
O=C(/C=C/c1ccc(Cl)c(Cl)c1)NCCCCCN1CCC(NC(=O)Nc2ccc(Br)cc2)CC1	6.24
CCN(CCCN1CCCCC1)c1cc(C)nc(Nc2ccc(Cl)cc2)n1	6.42
COc1ccccc1-c1cccc(CNC2CCN(CC3Cn4c(=O)ccc5ccc(F)c3c54)CC2)c1 (stereo not drawn)	5.86
Nc1ncc(-c2ccc(Cl)c(Cl)c2)c(N)n1	6.14
c1ccc(CCNc2nc(NCC(c3ccccc3)c3ccccc3)c3[nH]cnc3n2)cc1	6.21
O=S(=O)(c1c(Cl)cc(Cl)cc1Cl)N1CCCCC(c2ccc(Cl)cc2)=N1	6.40
O=[N+]([O-])c1ccc(Nc2nc(NN=Cc3ccc(-c4ccc([N+](=O)[O-])cc4)o3)nc(Nc3ccccc3)n2)cc1	6.19
CCN(CCO)CCc1cccc(Nc2nccc(-c3c(-c4ccc(NC(=O)C(C)(C)C)cc4)nn4ccccc34)n2)c1	6.15

SMILES	pIC50
CCc1sc(N2CCN(C)CC2)nc1C(=O)NCCc1ccc(Cl)c(Cl)c1	5.93
COc1ccccc1CCNc1ncnc2c1[nH]c1ccc(F)cc12	6.08
O=C(Nc1ccc(Cl)c(Cl)c1)Nc1ccc(F)c([N+](=O)[O-])c1	6.15
CCc1ccc(NC(=O)c2ccc(CN3CCCN(CCC(C)C)CC3)cc2)cc1	6.20
COc1ccc(-c2cc(Nc3nc(-c4cccc(Cl)c4)nc4ccccc34)ccn2)cc1	6.14
Cc1nc(Nc2cc(Cl)ccc2O)nc(Nc2cc(Cl)ccc2O)c1[N+](=O)[O-]	7.52
O=C(NC1CC1)c1cnc(N2CCC(COc3cccc(F)c3)CC2)c(Cl)c1	5.92
CCOC(=O)c1[nH]c(-c2ccccc2)nc1NC(=S)NC1CCCCC1	6.08
O=C(/C=C/c1ccc(Cl)c(Cl)c1)NCCCCCCN1CCCN(C(=O)Nc2cccc(C(F)(F)F)c2)CC1	6.10
O=C(Nc1ccc(F)cc1)c1ccc(C(=O)NC2CCN(CC3CCCCC3)CC2)cc1	6.27
CC[C@H]1CN2CC[C@H]1C[C@H]2[C@H](O)c1cc(-c2ccccc2C)nc2ccc(OC)cc12	6.70
Cc1cc(N[C@@H](Cc2ccccc2)C(=O)NCCOc2ccccc2)nc(NCCc2ccccc2)n1	5.99
Cc1cc2nc(-c3ccc(C(=O)NCc4cccc(C(F)(F)F)c4)cc3)[nH]c2cc1C	6.09
CCCCCCn1c2c(c(=N)c3c1CCC3)CCC2	6.74
OC(CNCc1ccccc1Oc1ccccc1)c1cccc(C(F)(F)F)c1 (stereo not drawn)	6.15
CN(c1ncc(-c2cccc(CNCc3ccccc3O)c2)cn1)C1CCCCC1	6.09
CC(Oc1cccc(Cl)c1)C(=O)N1CCc2ccccc21 (stereo not drawn)	6.29
O=C(Nc1ccc(OC2CCN(Cc3ccc(F)cc3)C2)c(Cl)c1)c1ccsc1 (stereo not drawn)	6.27
c1ccc(CNc2nc(NCCc3cnc[nH]3)nc(NCc3cccc4ccccc34)n2)cc1	5.95
Clc1ccc2c(NN=Cc3ccccc3)ccnc2c1	6.12
CC(C)(C)OC(=O)Cn1cnc2cc(NC(=O)c3cc([N+](=O)[O-])cc([N+](=O)[O-])c3)ccc21	6.51
COc1cccc(C(=O)Nc2ccc(Nc3nc(C)cc(N(C)C)n3)cc2)c1	6.03
c1ccc(COc2ccc(Nc3ncnc4cnc(-c5ccc(CN6CCCCC6)o5)cc34)cc2)cc1	6.01
